Laboratory results published in patent US5574033A, “Heterocyclic compound and cardiotonic agent containing the same as effective component” (Zenyaku Kogyo Kabushiki Kaisha, priority 1991, dated 1996).

Assays:
[1] = test system: papillary muscles of a right ventricle; test: Pharmacological Test 1: contraction of isolated right ventricular papillary muscles upon electric stimulation (inotropic effect); design: species or system male Hartley guinea pig; conditions: 3×10^-5 M; percentage of increment of contractile force, isoprotelenol (1×10^-8 M) = 100%; 1 Hz stimulation, 30° C.
Procedure: (§1) Nos. of the compounds in the pharmacological tests 1 and 2 correspond to those in Examples referred to hereinafter.
(§2) A heart was removed from a male Hartley guinea pig (having a body weight of about 400 g or so) and a right atrium and papillary muscles of a right ventricle were separated from the removed heart. These preparations were suspended in 15 ml of Magnus' bath under load of 0.5 g (papillary muscles) or 1.0 g (right atria). Contraction of papillary muscles upon electric stimulation (1 Hz, 5 msec, 1.5×threshold voltage) and spontaneous contraction of the right atria were recorded through a transducer (manufactured by Orientec, T7-8-240) by a polygraph system (manufactured by NIHONKOHDEN, RMP-6008 and WT-685G).
(§3) Krebs-Henseleit solution was used as nutritive liquid bubbled with mixed gases of 95% O2 with 5% CO2 at 30° C. The value of inotropic effect is a percentage of increment of contractile force by samples when that by isoprotelenol (1×10^-8 M) is considered to be 100%. The value of chronotropic effect is a percentage of atrial rate after the injection of samples when the atrial rate before the injection is considered to be 100%.

right atria = test: Pharmacological Test 1: spontaneous contraction of isolated right atria (chronotropic effect); design: species or system male Hartley guinea pig; conditions: Cavia porcellus; 3×10^-5 M; percentage of atrial rate after injection, rate before injection = 100%; 30° C.
Procedure: as §1, §2, §3

Compound | Inotropic Effect [1] [%] | activity at 30 µM (right atria) [%]
COc1ccc(C(O)CN2CC=C(C3=NNC(=O)CS3)CC2)cc1 (stereo not drawn) [Compound 1, 2-[1-[2-Hydroxy-2-(4-methoxyphenyl)ethyl]-1,2,5,6-tetrahydropyrid-4-yl]-4H,6H-1,3,4-thiadiazin-5-one] | 55.7 | 87.6
COc1cccc(C(O)CN2CC=C(C3=NNC(=O)CS3)CC2)c1 (stereo not drawn) [Compound 7, 2-[1-[2-Hydroxy-2-(3-methoxyphenyl)ethyl]-1,2,5,6-tetrahydropyrid-4-yl]-4H,6H-1,3,4-thiadiazin-5-one] | 54.0 | 95.2
COc1ccc(OC)c(C(O)CN2CC=C(C3=NNC(=O)CS3)CC2)c1 (stereo not drawn) [Compound 8, 2-[1-[2-Hydroxy-2-(2,5-dimethoxyphenyl)ethyl]-1,2,5,6-tetrahydropyrid-4-yl]-4H,6H-1,3,4-thiadiazin-5-one] | 50.4 | 89
O=C1CSC(C2=CCN(CC(O)c3cccc(Cl)c3)CC2)=NN1 (stereo not drawn) [Compound 12, 2-[1-[2-(3-Chlorophenyl)-2-hydroxyethyl]-1,2,5,6-tetrahydropyrid-4-yl]-4H,6H-1,3,4-thiadiazin-5-one] | 51.0 | 93.8
O=C1CSC(C2=CCN(CC(O)c3ccc(Cl)cc3)CC2)=NN1 (stereo not drawn) [Compound 13, 2-[1-[2-(4-Chlorophenyl)-2-hydroxyethyl]-1,2,5,6-tetrahydropyrid-4-yl]-4H,6H-1,3,4-thiadiazin-5-one] | 72.2 | 93.4
CC1SC(C2=CCN(CC(O)c3ccc(Cl)cc3)CC2)=NNC1=O (stereo not drawn) [Compound 14, 2-[1-[2-(4-Chlorophenyl)-2-hydroxyethyl]-1,2,5,6-tetrahydropyrid-4-yl]-6-methyl-4H,6H-1,3,4-thiadiazin-5-one] | 26.3 | 73.5
O=C1CSC(C2=CCN(CC(O)c3ccc(Cl)cc3Cl)CC2)=NN1 (stereo not drawn) [Compound 17, 2-[1-[2-(2,4-Dichlorophenyl)-2-hydroxyethyl]-1,2,5,6-tetrahydropyrid-4-yl]-4H,6H-1,3,4-thiadiazin-5-one] | 45.0 | 85.8
O=C1CSC(C2=CCN(CC(O)c3ccc(Cl)c(Cl)c3)CC2)=NN1 (stereo not drawn) [Compound 18, 2-[1-[2-(3,4-Dichlorophenyl)-2-hydroxyethyl]-1,2,5,6-tetrahydropyrid-4-yl]-4H,6H-1,3,4-thiadiazin-5-one] | 52.2 | 97.8
Cc1cccc(C(O)CN2CC=C(C3=NNC(=O)CS3)CC2)c1 (stereo not drawn) [Compound 20, 2-[1-[2-Hydroxy-2-(3-methylphenyl)ethyl]-1,2,5,6-tetrahydropyrid-4-yl]-4H,6H-1,3,4-thiadiazin-5-one] | 65.7 | 87.5
Cc1ccc(C(O)CN2CC=C(C3=NNC(=O)CS3)CC2)cc1 (stereo not drawn) [Compound 21, 2-[1-[2-Hydroxy-2-(4-methylphenyl)ethyl]-1,2,5,6-tetrahydropyrid-4-yl]-4H,6H-1,3,4-thiadiazin-5-one] | 92.6 | 84.5
Cc1ccc(C(O)CN2CC=C(C3=NNC(=O)C(C)S3)CC2)cc1 (stereo not drawn) [Compound 22, 2-[1-[2-Hydroxy-2-(4-methylphenyl)ethyl]-1,2,5,6-tetrahydropyrid-4-yl]-6-methyl-4H,6H-1,3,4-thiadiazin-5-one] | 30.4 | 76.7
Cc1ccc(C(O)CN2CC=C(C3=NNC(=O)CS3)CC2)c(C)c1 (stereo not drawn) [Compound 25, 2-[1-[2-Hydroxy-2-(2,4-dimethylphenyl)ethyl]-1,2,5,6-tetrahydropyrid-4-yl]-4H,6H-1,3,4-thiadiazin-5-one] | 58.5 | 65.2
O=C1CSC(C2=CCN(CC(O)c3cccc(O)c3)CC2)=NN1 (stereo not drawn) [Compound 27, 2-[1-[2-Hydroxy-2-(3-hydroxyphenyl)ethyl]-1,2,5,6-tetrahydropyrid-4-yl]-4H,6H-1,3,4-thiadiazin-5-one] | 63.1 | 98.7
O=C1CSC(C2=CCN(CC(O)c3ccccc3[N+](=O)[O-])CC2)=NN1 (stereo not drawn) [Compound 29, 2-[1-[2-Hydroxy-2-(2-nitrophenyl)ethyl]-1,2,5,6-tetrahydropyrid-4-yl]-4H,6H-1,3,4-thiadiazin-5-one] | 79.3 | 101
O=C1CSC(C2=CCN(CC(O)c3cccc([N+](=O)[O-])c3)CC2)=NN1 (stereo not drawn) [Compound 30, 2-[1-[2-Hydroxy-2-(3-nitrophenyl)ethyl]-1,2,5,6-tetrahydropyrid-4-yl]-4H,6H-1,3,4-thiadiazin-5-one] | 113.9 | 100
O=C1CSC(C2=CCN(CC(O)c3ccc([N+](=O)[O-])cc3)CC2)=NN1 (stereo not drawn) [Compound 31, 2-[1-[2-Hydroxy-2-(4-nitrophenyl)ethyl]-1,2,5,6-tetrahydropyrid-4-yl]-4H,6H-1,3,4-thiadiazin-5-one] | 74.7 | 90.4
O=C1CSC(C2=CCN(CC(O)c3ccc4c(c3)OCO4)CC2)=NN1 (stereo not drawn) [Compound 32, 2-[1-[2-Hydroxy-2-[3,4-(methylenedioxy)phenyl]ethyl]-1,2,5,6-tetrahydropyrid-4-yl]-4H,6H-1,3,4-thiadiazin-5-one] | 63.9 | 93.1
O=C1CSC(C2=CCN(CC(O)c3cccc(C(F)(F)F)c3)CC2)=NN1 (stereo not drawn) [Compound 34, 2-[1-[2-Hydroxy-2-[3-(trifluoromethyl)phenyl]ethyl]-1,2,5,6-tetrahydropyrid-4-yl]-4H,6H-1,3,4-thiadiazin-5-one] | 49.9 | 98.1
O=C1CSC(C2=CCN(CC(O)c3ccc(F)cc3)CC2)=NN1 (stereo not drawn) [Compound 35, 2-[1-[2-(4-Fluorophenyl)-2-hydroxyethyl]-1,2,5,6-tetrahydropyrid-4-yl]-4H,6H-1,3,4-thiadiazin-5-one] | 63.5 | 90.7
COc1ccc(C(O)CN2CC=C(C3=NNC(=O)SC3)CC2)cc1 (stereo not drawn) [Compound 39, 5-[1-[2-Hydroxy-2-(4-methoxyphenyl)ethyl]-1,2,5,6tetra-hydropyrid-4-yl]-3H,6H-1,3,4-thiadiazin-2-one] | 28.3 | 75.7
O=C1NN=C(C2=CCN(CC(O)c3ccccc3)CC2)CS1 (stereo not drawn) [Compound 40, 5-[1-(2-Hydroxy-2-phenylethyl)-1,2,5,6-tetrahydropyrid-4-yl]-3H,6H-1,3,4-thiadiazin-2-one] | 35.3 | 98.1
O=C1NN=C(C2=CCN(CC(O)c3ccc(Cl)cc3)CC2)CS1 (stereo not drawn) [Compound 42, 5-[1-[2-(4-Chlorophenyl)-2-hydroxyethyl]-1,2,5,6-tetrahydropyrid-4-yl]-3H,6H-1,3,4-thiadiazin-2-one] | 71.0 | 85.9
Cc1ccc(C(O)CN2CC=C(C3=NNC(=O)SC3)CC2)cc1 (stereo not drawn) [Compound 43, 5-[1-[2-Hydroxy-2-(4-methylphenyl)ethyl]-1,2,5,6-tetrahydropyrid-4-yl]-3H,6H-1,3,4-thiadiazin-2-one] | 57.2 | 85.2
O=C1NN=C(C2=CCN(CC(O)c3cccc(O)c3)CC2)CS1 (stereo not drawn) [Compound 44, 5-[1-[2-Hydroxy-2-(3-hydroxyphenyl)ethyl]-1,2,5,6-tetrahydropyrid-4-yl]-3H,6H-1,3,4-thiadiazin-2-one] | 39.9 | 101
O=C1NN=C(C2=CCN(CC(O)c3ccc([N+](=O)[O-])cc3)CC2)CS1 (stereo not drawn) [Compound 45, 5-[1-[2-Hydroxy-2-(4-nitrophenyl)ethyl]-1,2,5,6-tetrahydropyrid-4-yl]-3H,6H-1,3,4-thiadiazin-2-one] | 99.5 | 79.1
O=C1NN=C(C2=CCN(CC(O)c3ccc(F)cc3)CC2)CS1 (stereo not drawn) [Compound 46, 5-[1-[2-(4-Fluorophenyl)-2-hydroxyethyl]-1,2,5,6-tetrahydropyrid-4-yl]-3H,6H-1,3,4-thiadiazin-2-one] | 61.9 | 81.6
N#Cc1ccc(C(O)CN2CC=C(C3=NNC(=O)SC3)CC2)cc1 (stereo not drawn) [Compound 47, 5-[1-[2-(4-Cyanophenyl)-2-hydroxyethyl]-1,2,5,6-tetrahydropyrid-4-yl]-3H,6H-1,3,4-thiadiazin-2-one] | 81.4 | 78.2
O=C1NN=C(C2=CCN(CC(O)c3cccc(C(F)(F)F)c3)CC2)CS1 (stereo not drawn) [Compound 48, 5-[1-[2-Hydroxy-2-[3-(trifluoromethyl)phenyl]ethyl]-1,2,5,6-tetrahydropyrid-4-yl]-3H,6H-1,3,4-thiadiazin-2-one] | 45.4 | 77.7
COc1ccc(C(O)CN2CC=C(C3=NNC(=O)CC3)CC2)cc1 (stereo not drawn) [Compound 49, 4,5-Dihydro-6-[1-[2-hydroxy-2-(4-methoxyphenyl)ethyl]-1,2,5,6-tetrahydropyrid-4-yl]pyridazin-3(2H)-one] | 27.7 | 87.6
O=C1CCC(C2=CCN(CC(O)c3ccccc3Cl)CC2)=NN1 (stereo not drawn) [Compound 50, 6-[1-[2-(2-Chlorophenyl)-2-hydroxyethyl]-1,2,5,6-tetrahydropyrid-4-yl]-4,5-dihydropyridazin-3 (2H)-one] | 38.9 | 98.6
